In ChEMBL document CHEMBL2390816, “Structure-based optimization of oxadiazole-based GSK-3 inhibitors” (Eur J Med Chem, 2013):

How the values were obtained:
[1] = biological target: Protein kinase C alpha type (Homo sapiens, UniProt P17252); assay: Inhibition of human recombinant PKCalpha by FRET assay
[2] = biological target: Casein kinase I isoform epsilon (Homo sapiens, UniProt P49674); assay: Inhibition of human recombinant CK1epsilon by FRET assay
[3] = biological target: Glycogen synthase kinase-3 beta (Homo sapiens, UniProt P49841); assay: Inhibition of human recombinant GSK3beta by FRET assay
Aurora kinase A = biological target: T1, Aurora kinase A (Homo sapiens, UniProt O14965); assay: Inhibition of human recombinant AURKA by FRET assay
T1 sequence (O14965 whole entry): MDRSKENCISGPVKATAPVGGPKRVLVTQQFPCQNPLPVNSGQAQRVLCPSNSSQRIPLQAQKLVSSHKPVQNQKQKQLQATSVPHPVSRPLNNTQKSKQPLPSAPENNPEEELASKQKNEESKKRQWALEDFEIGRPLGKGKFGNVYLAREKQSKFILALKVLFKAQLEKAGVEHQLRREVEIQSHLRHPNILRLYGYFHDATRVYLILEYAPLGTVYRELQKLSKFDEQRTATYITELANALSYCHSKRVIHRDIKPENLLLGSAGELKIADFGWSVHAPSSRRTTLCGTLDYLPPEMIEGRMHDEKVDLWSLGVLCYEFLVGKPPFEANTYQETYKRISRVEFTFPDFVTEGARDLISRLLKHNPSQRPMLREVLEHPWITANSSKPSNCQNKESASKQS

[4] = biological target: Glycogen synthase kinase-3 alpha (Homo sapiens, UniProt P49840); assay: Inhibition of human recombinant GSK3alpha by FRET assay
[5] = biological target: Cyclin-dependent kinase 5 (Homo sapiens, UniProt Q00535); assay: Inhibition of human recombinant Cdk5/p35 by FRET assay
Danio rerio = species on record: Danio rerio; assay: Toxicity in wild type zebra fish embryo up to 30 uM; format: organism-based; conditions: zebrafish, in vivo

Casein kinase I isoform epsilon, sequence (P49674 whole entry, canonical isoform): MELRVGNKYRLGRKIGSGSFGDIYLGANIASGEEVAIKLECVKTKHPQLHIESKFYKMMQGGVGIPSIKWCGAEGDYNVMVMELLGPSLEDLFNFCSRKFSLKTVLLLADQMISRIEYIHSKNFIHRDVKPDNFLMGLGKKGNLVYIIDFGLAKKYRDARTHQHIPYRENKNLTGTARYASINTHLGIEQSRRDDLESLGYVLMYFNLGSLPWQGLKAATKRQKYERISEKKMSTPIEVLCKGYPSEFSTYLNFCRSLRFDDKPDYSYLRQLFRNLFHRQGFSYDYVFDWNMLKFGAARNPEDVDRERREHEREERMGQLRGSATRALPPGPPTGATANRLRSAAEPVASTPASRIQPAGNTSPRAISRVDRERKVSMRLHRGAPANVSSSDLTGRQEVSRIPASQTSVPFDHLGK
Glycogen synthase kinase-3 beta, sequence (P49841 whole entry): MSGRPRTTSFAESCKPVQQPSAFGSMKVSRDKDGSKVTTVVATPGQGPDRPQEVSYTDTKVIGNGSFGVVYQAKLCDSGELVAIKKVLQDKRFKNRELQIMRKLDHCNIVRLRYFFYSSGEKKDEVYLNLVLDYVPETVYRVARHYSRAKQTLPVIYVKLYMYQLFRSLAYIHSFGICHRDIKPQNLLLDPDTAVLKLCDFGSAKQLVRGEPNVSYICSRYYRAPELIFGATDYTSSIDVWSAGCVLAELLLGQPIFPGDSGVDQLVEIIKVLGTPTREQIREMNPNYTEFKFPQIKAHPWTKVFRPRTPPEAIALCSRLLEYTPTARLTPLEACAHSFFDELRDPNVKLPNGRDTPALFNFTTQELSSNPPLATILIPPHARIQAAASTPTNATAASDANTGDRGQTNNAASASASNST
Cyclin-dependent kinase 5, sequence (Q00535 whole entry): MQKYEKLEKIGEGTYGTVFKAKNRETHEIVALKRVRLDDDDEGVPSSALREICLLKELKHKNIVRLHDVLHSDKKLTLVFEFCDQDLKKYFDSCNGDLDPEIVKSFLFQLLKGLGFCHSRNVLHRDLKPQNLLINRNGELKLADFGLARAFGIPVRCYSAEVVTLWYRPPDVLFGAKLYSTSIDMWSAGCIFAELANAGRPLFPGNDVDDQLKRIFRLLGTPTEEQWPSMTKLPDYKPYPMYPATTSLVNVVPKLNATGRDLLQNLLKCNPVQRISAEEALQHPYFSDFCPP
Glycogen synthase kinase-3 alpha, sequence (P49840 whole entry): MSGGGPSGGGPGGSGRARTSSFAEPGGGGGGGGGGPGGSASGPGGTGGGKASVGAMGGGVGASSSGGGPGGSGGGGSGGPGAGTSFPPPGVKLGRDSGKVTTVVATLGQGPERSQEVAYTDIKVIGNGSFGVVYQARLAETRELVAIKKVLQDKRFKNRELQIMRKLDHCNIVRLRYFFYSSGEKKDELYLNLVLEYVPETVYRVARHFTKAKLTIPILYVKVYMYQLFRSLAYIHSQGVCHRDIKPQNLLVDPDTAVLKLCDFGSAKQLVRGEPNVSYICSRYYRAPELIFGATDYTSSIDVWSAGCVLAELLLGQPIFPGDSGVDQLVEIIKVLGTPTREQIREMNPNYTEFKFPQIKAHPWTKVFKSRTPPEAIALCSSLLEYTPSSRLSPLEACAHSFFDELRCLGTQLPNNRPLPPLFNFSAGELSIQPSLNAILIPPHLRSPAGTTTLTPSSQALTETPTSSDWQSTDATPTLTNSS

## COc1ccc(-c2ccc(CSc3nnc(-c4ccncc4)o3)cc2)cc1
[1]
  IC50: > 100 µM
[2]
  IC50: > 100 µM
[3]
  IC50: 176 nM
Aurora kinase A
  IC50: > 100 µM
[4]
  IC50: 240 nM
[5]
  IC50: > 100 µM

## O=[N+]([O-])c1cccc(-c2ccc(CSc3nnc(-c4ccc5c(c4)OCO5)o3)cc2)c1
[1]
  IC50: > 100 µM
[2]
  IC50: > 100 µM
[3]
  IC50: 86 nM
Aurora kinase A
  IC50: > 100 µM
[4]
  IC50: 15 nM
[5]
  IC50: > 100 µM

## c1ccc(-c2ccc(CSc3nnc(-c4ccncc4)o3)cc2)cc1
[1]
  IC50: > 100 µM
[2]
  IC50: > 100 µM
[3]
  IC50: 83 nM
Aurora kinase A
  IC50: > 100 µM
[4]
  IC50: 52 nM
[5]
  IC50: > 100 µM

## N#Cc1cccc(-c2ccc(CSc3nnc(-c4ccc5c(c4)OCCO5)o3)cc2)c1
[1]
  IC50: > 100 µM
[2]
  IC50: > 100 µM
[3]
  IC50: 225 nM
Aurora kinase A
  IC50: > 100 µM
[4]
  IC50: 9 nM
[5]
  IC50: > 100 µM

## O=[N+]([O-])c1ccccc1-c1ccc(CSc2nnc(-c3ccc4c(c3)OCO4)o2)cc1
[1]
  IC50: > 100 µM
[2]
  IC50: > 100 µM
[3]
  IC50: 27 nM
Aurora kinase A
  IC50: > 100 µM
[4]
  IC50: 3 nM
[5]
  IC50: > 100 µM

## CC(=O)Nc1cc(-c2nnc(SCc3cccc(C#N)c3)o2)ccn1
[1]
  IC50: > 100 µM
[2]
  IC50: > 100 µM
[3]
  IC50: 19 nM
Aurora kinase A
  IC50: > 100 µM
[4]
  IC50: 17 nM
[5]
  IC50: > 100 µM

## N#Cc1cccc(-c2ccc(CSc3nnc(-c4ccncc4)o3)cc2)c1
[1]
  IC50: > 100 µM
[2]
  IC50: > 100 µM
[3]
  IC50: 84 nM
Aurora kinase A
  IC50: 60 µM
[4]
  IC50: 46 nM
[5]
  IC50: > 100 µM

## N#Cc1ccc(-c2ccc(CSc3nnc(-c4ccc5c(c4)OCCO5)o3)cc2)cc1
[1]
  IC50: > 100 µM
[2]
  IC50: > 100 µM
[3]
  IC50: 2000 nM
Aurora kinase A
  IC50: 50 µM
[4]
  IC50: 195 nM
[5]
  IC50: > 100 µM

## Fc1cc(F)cc(-c2ccc(CSc3nnc(-c4ccc5c(c4)OCCO5)o3)cc2)c1
[1]
  IC50: > 100 µM
[2]
  IC50: > 100 µM
[3]
  IC50: 966 nM
Aurora kinase A
  IC50: > 100 µM
[4]
  IC50: 35 nM
[5]
  IC50: > 100 µM

## COc1ccc(-c2ccc(CSc3nnc(-c4ccc5c(c4)OCO5)o3)cc2)c(C#N)c1
[1]
  IC50: > 100 µM
Danio rerio
  Activity: Non-toxic
[2]
  IC50: 50 µM
[3]
  IC50: 14 nM
Aurora kinase A
  IC50: 45 µM
[4]
  IC50: 5 nM
[5]
  IC50: > 100 µM

## COc1ccc(-c2ccc(CSc3nnc(-c4ccc5c(c4)OCO5)o3)cc2)cc1
[1]
  IC50: > 100 µM
[2]
  IC50: 20 µM
[3]
  IC50: 75 nM
Aurora kinase A
  IC50: 40 µM
[4]
  IC50: 7 nM
[5]
  IC50: > 100 µM

## N#Cc1ccc(-c2ccc(CSc3nnc(-c4ccncc4)o3)cc2)cc1
[1]
  IC50: > 100 µM
[2]
  IC50: > 100 µM
[3]
  IC50: 153 nM
Aurora kinase A
  IC50: > 100 µM
[4]
  IC50: 77 nM
[5]
  IC50: > 100 µM

## c1ccc(-c2ccc(CSc3nnc(-c4ccc5c(c4)OCCO5)o3)cc2)cc1
[1]
  IC50: > 100 µM
[2]
  IC50: > 100 µM
[3]
  IC50: 234 nM
Aurora kinase A
  IC50: > 100 µM
[4]
  IC50: 51 nM
[5]
  IC50: > 100 µM

## O=[N+]([O-])c1cccc(-c2ccc(CSc3nnc(-c4ccc5c(c4)OCCO5)o3)cc2)c1
[1]
  IC50: > 100 µM
[2]
  IC50: > 100 µM
[3]
  IC50: 164 nM
Aurora kinase A
  IC50: > 100 µM
[4]
  IC50: 15 nM
[5]
  IC50: > 100 µM

## COc1ccc(-c2ccc(CSc3nnc(-c4ccc5c(c4)OCCO5)o3)cc2)cc1
[1]
  IC50: > 100 µM
[2]
  IC50: > 100 µM
[3]
  IC50: 127 nM
Aurora kinase A
  IC50: > 100 µM
[4]
  IC50: 19 nM
[5]
  IC50: > 100 µM

## CC(=O)Nc1cc(-c2nnc(SCc3ccc(-c4ccccc4C#N)cc3)o2)ccn1
[1]
  IC50: > 100 µM
Danio rerio
  Activity: Non-toxic
[2]
  IC50: > 100 µM
[3]
  IC50: 17 nM
Aurora kinase A
  IC50: > 100 µM
[4]
  IC50: 2 nM
[5]
  IC50: > 100 µM

## O=[N+]([O-])c1ccccc1-c1ccc(CSc2nnc(-c3ccc4c(c3)OCCO4)o2)cc1
[1]
  IC50: > 100 µM
[2]
  IC50: > 100 µM
[3]
  IC50: 90 nM
Aurora kinase A
  IC50: > 100 µM
[4]
  IC50: 4 nM
[5]
  IC50: > 100 µM

## N#Cc1cc(F)ccc1-c1ccc(CSc2nnc(-c3ccncc3)o2)cc1
[1]
  IC50: > 100 µM
[2]
  IC50: > 100 µM
[3]
  IC50: 56 nM
Aurora kinase A
  IC50: > 100 µM
[4]
  IC50: 324 nM
[5]
  IC50: > 100 µM

## N#Cc1cccc(-c2ccc(CSc3nnc(-c4ccc5c(c4)OCO5)o3)cc2)c1
[1]
  IC50: > 100 µM
[2]
  IC50: > 100 µM
[3]
  IC50: 29 nM
Aurora kinase A
  IC50: > 100 µM
[4]
  IC50: 4 nM
[5]
  IC50: > 100 µM

## CC(=O)Nc1cc(-c2nnc(SCc3ccccc3)o2)ccn1
[1]
  IC50: > 100 µM
[2]
  IC50: > 100 µM
[3]
  IC50: 35 nM
Aurora kinase A
  IC50: 60 µM
[4]
  IC50: 20 nM
[5]
  IC50: > 100 µM

## O=[N+]([O-])c1ccccc1-c1ccc(CSc2nnc(-c3ccncc3)o2)cc1
[1]
  IC50: > 100 µM
[2]
  IC50: > 100 µM
[3]
  IC50: 164 nM
Aurora kinase A
  IC50: 5 µM
[4]
  IC50: 27 nM
[5]
  IC50: > 100 µM

## Fc1cc(F)cc(-c2ccc(CSc3nnc(-c4ccc5c(c4)OCO5)o3)cc2)c1
[1]
  IC50: > 100 µM
[2]
  IC50: 80 µM
[3]
  IC50: 195 nM
Aurora kinase A
  IC50: > 100 µM
[4]
  IC50: 51 nM
[5]
  IC50: > 100 µM

## COc1ccc(-c2ccc(CSc3nnc(-c4ccc5c(c4)OCCO5)o3)cc2)c(C#N)c1
[1]
  IC50: > 100 µM
[2]
  IC50: > 100 µM
[3]
  IC50: 32 nM
Aurora kinase A
  IC50: > 100 µM
[4]
  IC50: 5 nM
[5]
  IC50: > 100 µM
